# Where two headings read alike, the source gives them in different places.
# Columns and labels:
# [1] = system: Pseudomonas fluorescens; assay: Alternate Minimum Inhibitory Concentrations Test (Table 4), Ps.fl; format: cell-based; conditions: Table 4 alternate test, 250 ppm to 0.8 ppm in TSB, 72 hours, 30° C.; for MIC: Pseudomonas fluorescens, read-out: MIC Ps.fl
# Protocol: The compounds of Examples 1-8, 12-26, 28-33, 36-37, 39-42, 44-109, 111-114, and 116-120 were subjected also to the following alternate biocidal activity test procedures with the results as indicated in Table 4.
# The MIC test measures the viability of Pseudomonas fluorescens inoculum in TSB when exposed for 72 hours to varying concentrations of test compound.
# A 125 μl aliquot of 10,000 ppm test compound in acetone was added to 4.88 ml of TSB to provide a 250 ppm solution. From this solution, 100 μL was transferred to the first row of two microtiter plate columns. Both replicates and five additional compounds were all serially diluted 1:1 to a final concentration of 0.8 ppm in TSB.
# Inoculation was accomplished by diluting a 24 hr Ps fl culture, four mls per 36 mls of phosphate buffer solution. A Dynatech autoinoculator was used to transfer 1.5 μl of this cell suspension to the microtiter plates. The plates were incubated at 30° C. for 3 days before the lowest concentration at which no growth occurs was recorded in the database.
# [2] = system: Pseudoperonospora cubensis; assay: whole plant or invertebrate; format: in vivo
# [3] = system: Piricularia oryzae; assay: whole plant or invertebrate; format: in vivo
# [4] = system: Pellicularia filamentosa (f. sp. sasiki); assay: whole plant or invertebrate; format: in vivo; conditions: for pest or weed control at 200 ppm: 120 h, read-out: % Control RSB; for % Control RSB: in vivo
# [5] = system: Phytophthora infestans; assay: whole plant or invertebrate; format: in vivo
# [6] = system: Puccinia recondita (f. sp. tritici Races PKB and PLD); assay: whole plant or invertebrate; format: in vivo; conditions: for pest or weed control at 200 ppm / pest or weed control at 50 ppm: Puccinia recondita, 240 h, read-out: % Control WLR
# [7] = system: Erysiphe graminis (f. sp. tritici); assay: whole plant or invertebrate; format: in vivo; conditions: for pest or weed control at 200 ppm / pest or weed control at 50 ppm / pest or weed control at 12 ppm: Blumeria graminis, read-out: % Control WPM
# [8] = system: Puccinia graminis (f. sp. tritici Race 15B-2); assay: whole plant or invertebrate; format: in vivo; conditions: Puccinia graminis, 336 h, read-out: % Control WSR
# [9] = Pseudoperonospora cubensis, in Cucumis sativus, 168 h, read-out: % Control CDM
# [10] = Pyricularia oryzae, read-out: % Control RB, application rate 200 ppm
# [11] = Phytophthora infestans, in Solanum lycopersicum, 96 h, read-out: % Control TLB
# [12] = Pyricularia oryzae, read-out: % Control RB
Molecule,MIC [1],"pest or weed control at 200 ppm [2, 9]","pest or weed control at 200 ppm [3, 10]",pest or weed control at 200 ppm [4],"pest or weed control at 200 ppm [5, 11]",pest or weed control at 200 ppm [6],pest or weed control at 200 ppm [7],further results
"CCCCCCCCNC(=O)/C=C\SC(=O)CCCC(=O)OC [Compound 85, N-octyl-cis-3-[(4-methoxycarbonylbutanoyl)thio]acrylamide]",> 250 µg/mL,70%,90%,0%,90%,80%,0%,–
"CCCCCCCCNC(=O)/C=C\SC(=O)CC=Cc1ccccc1 [Compound 88, N-octyl-cis-3-[(4-phenylbut-3-enoyl)thio]acrylamide]",> 250 µg/mL,70%,90%,–,90%,–,0%,pest or weed control at 50 ppm [6]: 80%; pest or weed control at 100 ppm [8]: 0%
"CC(=O)S/C=C\C(=O)NC1CCCCCCCCCCC1 [Compound 90, N-cyclododecyl-cis-3-(acetylthio)acrylamide]",> 250 µg/mL,85%,0%,0%,–,0%,–,"pest or weed control at 200 ppm ([5]; Phytophthora infestans, in Solanum lycopersicum, 96 h, read-out: % Control TLB, application rate 200 ppm): 0%; pest or weed control at 50 ppm [7]: 0%"
"CCCCCCCCNC(=O)/C=C\SC(=O)CCc1ccccc1 [Compound 91, N-octyl-cis-3-[(3-phenylpropanoyl)thio]acrylamide]",–,70%,–,–,80%,25%,–,"MIC Ps.fl [1]: > 250 Ppm; pest or weed control at 200 ppm [3, 12]: 70%; % Control RSB [4]: 0 % Control; pest or weed control at 12 ppm [7]: 85%"
"CCCCC/C=C/C(=O)S/C=C\C(=O)NCCCCCCCC [Compound 92, N-octyl-cis-3-[(trans-2-octenoyl)thio]acrylamide]",> 250 µg/mL,85%,–,0%,90%,–,–,"pest or weed control at 200 ppm [3, 12]: 70%; pest or weed control at 50 ppm [6]: 50%; pest or weed control at 50 ppm [7]: 50%"
"CCCCCCCCNC(=O)/C=C\SC(=O)CC1CCCCC1 [Compound 94, N-octyl-cis-3-(cyclohexaneacetylthio)acrylamide]",> 250 µg/mL,70%,90%,0%,80%,50%,85%,–
"CCCCCCCCNC(=O)/C=C\SC(=O)c1ccnc2ccccc12 [Compound 95, N-octyl-cis-3-[(4-quinoline)carbonylthio]acrylamide]",> 250 µg/mL,95%,–,0%,80%,50%,0%,"pest or weed control at 50 ppm [3, 12]: 70%"
"CCCCCCCCNC(=O)/C=C\SC(=O)c1cc([N+](=O)[O-])cc([N+](=O)[O-])c1 [Compound 97, N-octyl-cis-3-[(3,5-dinitrobenzoyl)thio]acrylamide]",> 250 µg/mL,–,–,0%,80%,0%,–,"pest or weed control at 50 ppm [2, 9]: 0%; pest or weed control at 200 ppm [3, 12]: 70%; pest or weed control at 12 ppm [7]: 50%"
"CCCCCCCCNC(=O)/C=C\SC(=O)c1ccc([N+](=O)[O-])c([N+](=O)[O-])c1 [Compound 112, N-octyl-cis-3-[(3,4-dinitrobenzoyl)thio]acrylamide]",> 250 µg/mL,99%,0%,–,–,50%,0%,"pest or weed control at 100 ppm [5, 11]: 90%; pest or weed control at 100 ppm [8]: 50%"
CC(C)(C)CC(C)(C)NC(=O)/C=C\SC(=O)c1ccccc1 [Compound 114],> 250 µg/mL,95%,0%,–,90%,0%,0%,pest or weed control at 100 ppm [8]: 50%
N-octyl-cis-3-(ferrocenecarbonylthio)acrylamide [Compound 81],–,–,–,–,–,–,–,MIC Ps.fl [1]: > 250 Ppm; % Control CDM ([2]; in vivo): 0 % Control; % Control RB ([3]; in vivo): 75 % Control; % Control RSB [4]: 0 % Control; % Control TLB ([5]; in vivo): 100 % Control; % Control WLR ([6]; in vivo): 25 % Control; % Control WPM ([7]; in vivo): 85 % Control

# Reference: US5300672A (priority 1992, dated 1994)
